Laboratory results from US11773071B2, “Benzothiazepine compounds and their use as bile acid modulators” (Albireo AB, priority 2019, dated 2023).
pIC50: −log10 of the molar value.

Tests used:
[1] = Bidirectional permeability assay (Caco-2 cells); format: in vitro ADME; details: human, Caco-2, absorptive direction (A2B), 10 μM in FaSSIF buffer
Protocol: Bidirectional Permeability Assay (Caco-2 Cells)
Caco-2 cells (Evotec) were seeded at a density of 70,000 cells/well in Millicell® 24-well cell culture insert plates and maintained in an incubator (37° C., 5% CO2, 95% RH) for 21 days with media change on alternate days.
Stock solutions (10 mM) of the test compounds, atenolol (low permeability marker), propranolol (high permeability marker) and digoxin (substrate for P-gp transport pathway) were prepared in dimethylsulfoxide (DMSO). An intermediate stock solution (1 mM) was prepared by diluting 10 μL of 10 mM master stock solution with 90 μL of neat DMSO. A working stock solution (10 μM) was prepared by diluting 50 μL of 1 mM with 4950 μL of FaSSIF buffer. Post addition of compounds to the FaSSIF, samples were subjected to sonication for 2 hours, and centrifuged at 4000 RPM for 30 minutes at 37° C. The 4 mL of resultant supernatant was directly used in the assay. The final DMSO concentration in the transport experiments was 1%.
On the day of assay, Caco-2 monolayers were washed twice with transport buffer (HBSS, pH 7.4) and pre-incubated for 30 min (37° C., 5% CO2, 95% RH) in an incubator. The electrical resistance of the monolayers was measured with a Millicell®—ERS system. Monolayers with trans-epithelial electrical resistance (TEER) values greater than 350 ohm·cm^2 were selected for the assay.
The assay was conducted in absorptive direction (A2B) and secretory (B2A) directions. Transport experiments were initiated by addition of transport assay buffer (FaSSIF buffer prepared in HBSS) consisting of compounds to the donor compartment (apical chamber A-B; basolateral chamber B-A) in duplicate (n=2) wells. Drug free HBSS buffer (pH 7.4) containing 1% bovine serum albumin (BSA) was introduced to the receiver (A-B-basolateral; B-A-Apical) compartments. The volumes of apical and basolateral compartments were 0.4 and 0.8 mL, respectively. After adding dosing solution, plates were incubated in an incubator for 120 minutes at 37° C. After 120 minutes, donor and receiver samples were collected and matrix matched (1:1, 30 μL study sample+30 μL blank buffer) with the opposite buffer. Dosing samples matrix matched (1:1, 30 μL study sample+30 μL blank buffer) with the opposite buffer. Samples were processed by adding acetonitrile containing internal standard (60 μL study sample+200 μL acetonitrile containing internal standard—Tolbutamide, 500 ng/mL). Samples were vortexed and centrifuged at 4000 rpm for 10 minutes. The obtained supernatant (100 μL) was diluted with 100 μL of water and transferred to fresh 96 well plates. The concentration of compounds in the samples was analyzed by liquid chromatography tandem mass spectrometry (LC-MS/MS) method using discovery grade bio-analytical method, as applicable.
The mean apparent permeability (Papp,×10^−6 cm/sec) of the test compounds, atenolol, propranolol and digoxin were calculated as follows:
[formula] where dq/dt=rate of transport (rate of transport of compound in the receiver compartment), C0=initial concentration in the donor compartment, A=surface area of the effective filter membrane.

[2] = target: T1, Human IBAT (Homo sapiens, UniProt Q12908); experiment: IBAT (h/m) assay, human IBAT-overexpressing cells, 3H-taurocholic acid uptake; format: cell-based; details: 0.25 μM 3H-taurocholic acid and 5 μM cold taurocholic acid, 20 minutes, read-out: hIBAT IC50
T1 construct: expressed in transfected cells; Puromycin-selected
T1 sequence (Q12908 1-348): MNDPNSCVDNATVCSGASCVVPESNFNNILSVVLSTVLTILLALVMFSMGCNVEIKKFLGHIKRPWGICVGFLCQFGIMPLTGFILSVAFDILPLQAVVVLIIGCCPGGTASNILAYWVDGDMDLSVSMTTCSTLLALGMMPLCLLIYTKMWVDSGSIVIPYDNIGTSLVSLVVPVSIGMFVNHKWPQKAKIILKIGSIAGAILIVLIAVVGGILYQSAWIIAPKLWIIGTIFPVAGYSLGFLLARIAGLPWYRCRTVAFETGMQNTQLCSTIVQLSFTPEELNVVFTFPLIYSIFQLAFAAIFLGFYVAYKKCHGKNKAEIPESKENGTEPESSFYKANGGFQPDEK
Protocol: IBAT (h/m) Assay Protocol
10,000 cells (Human or Mouse IBAT-overexpressing cells) were seeded in 96-wells plate (Corning CLS3809) in 200 μL MEM-alpha medium (Gibco 12571-063) supplemented with 10% FBS (Gibco 10438026) containing Puromycin (Gibco A1113803) (10 μg/mL) and incubated at 37° C. in 5% CO2 for 48 hours. After incubation, media was decanted from the wells and cells were washed two times with 300 μL of basal MEM-alpha medium (FBS-free). After decanting basal MEM-alpha medium each time, plates were tapped against paper towel to ensure maximum removal of residual media. Test inhibitor dilutions (highest test concentration being 10 μM, 3-fold serial dilution, 10 points) prepared in DMSO (Sigma D2650) were added in incubation mix (maintaining 0.2% final DMSO concentration) containing 0.25 μM 3H-taurocholic acid (ARC ART-1368) and 5 μM of cold taurocholic acid (Sigma T4009). 50 μL of incubation mix containing test inhibitors was then added to the wells (in duplicate) and the plates were incubated for 20 minutes in a CO2 incubator at 37° C. After incubation, the reaction was stopped by keeping the plates on ice water mix for 2-3 minutes and then the incubation mix was aspirated completely from the wells. The wells were washed two times with 250 μL of chilled unlabelled 1 mM taurocholic acid dissolved in HEPES (Gibco 15630080)-buffered (10 mM) HBSS (Gibco 14175079) (pH 7.4). The plates were tapped against a paper towel after every wash to ensure maximum removal of blocking buffer.
100 μL of MicroScint-20 (PerkinElmer 6013621) was added to the wells and kept overnight at room temperature before reading the plates in TopCount NXT™ Microplate Scintillation and Luminescence Counter from PerkinElmer under 3H Test protocol (set at 120 seconds reading time per well).
(§1) Preparation of Test Compound Dilutions
(§2) All test compounds were provided in powder form at room temperature. 10 mM DMSO stocks of the test compounds were prepared, aliquoted and stored at −20° C. From the 10 mM DMSO stock of the compounds, a 3-fold serial dilution in DMSO was prepared to get a total of 10 dilutions of the test compounds. 0.5 μL of this dilution in DMSO was added to 250 μL of FBS-free basal media containing 3H-taurocholic acid and cold taurocholic acid to prepare the incubation mixture.

[3] = target: T2, Human LBAT (Homo sapiens, UniProt Q14973); experiment: LBAT (h/m) assay, human LBAT-overexpressing cells, 3H-taurocholic acid uptake; format: cell-based; details: 0.3 μM 3H-taurocholic acid and 7.5 μM cold taurocholic acid, 20 minutes, read-out: hLBAT IC50
T2 construct: expressed in transfected cells; Geneticin-selected
T2 sequence (Q14973 1-349): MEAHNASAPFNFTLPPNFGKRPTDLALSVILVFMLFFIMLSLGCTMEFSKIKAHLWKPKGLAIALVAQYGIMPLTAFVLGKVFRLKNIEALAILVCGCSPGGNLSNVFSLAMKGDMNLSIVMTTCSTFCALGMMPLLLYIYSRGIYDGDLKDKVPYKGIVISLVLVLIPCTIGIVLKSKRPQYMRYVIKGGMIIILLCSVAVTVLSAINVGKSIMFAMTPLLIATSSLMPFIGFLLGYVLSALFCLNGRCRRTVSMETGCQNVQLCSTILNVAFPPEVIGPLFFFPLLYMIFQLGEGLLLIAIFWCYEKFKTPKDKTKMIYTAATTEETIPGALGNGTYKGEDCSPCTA
Protocol: LBAT (h/m) Assay Protocol
20,000 cells (Human or Mouse LBAT-overexpressing cells) were seeded in 96-wells plate (Corning CLS3809) in 100 μL MEM-alpha medium (Gibco 12571-063) supplemented with 10% FBS (Gibco 10438026) containing Geneticin (Gibco 10131-027) (1 mg/mL) and incubated at 37° C. in 5% CO2 for 24 hours. After incubation, media was decanted from the wells and cells were washed two times with 300 μL of basal MEM-alpha medium (FBS-free). After decanting basal MEM-alpha medium each time, plates were tapped against paper towel to ensure maximum removal of residual media.
For human LBAT, incubation mix was prepared by adding test inhibitor dilutions (3-fold serial dilution in DMSO (Sigma D2650), 10 points) in MEM-alpha (without FBS) containing 0.3 μM 3H-taurocholic acid (ARC ART-1368) and 7.5 μM cold taurocholic acid (Sigma T4009) (maintaining 0.2% final DMSO concentration). For mouse LBAT, incubation mix was prepared by adding test inhibitor dilutions (3-fold serial dilution in DMSO, 10 points) in MEM-alpha (without FBS) containing 0.3 μM 3H-taurocholic acid and 25 μM cold taurocholic acid maintaining 0.2% final DMSO concentration). 50 μL of incubation mix containing test inhibitors was then added to the wells (in duplicate) and the plates were incubated for 20 minutes in a CO2 incubator at 37° C. After incubation, the reaction was stopped by keeping the plates on ice water mix for 2-3 minutes and then the incubation mix was aspirated completely from the wells. The wells were washed two times with 250 μL of chilled unlabelled 1 mM taurocholic acid dissolved in HEPES (Gibco 15630080)-buffered (10 mM) HBSS (Gibco 14175079) (pH 7.4). The plates were tapped against a paper towel after every wash to ensure maximum removal of blocking buffer. 100 μL of MicroScint-20 (PerkinElmer 6013621) was added to the wells and kept overnight at room temperature before reading the plates in TopCount NXT™ Microplate Scintillation and Luminescence Counter from PerkinElmer under 3H Test protocol (set at 120 seconds reading time per well, with normal plate orientation).
as §1, §2

Compound | Papp A→B at 120 min, 10 μM [1] [×10⁻⁶ cm/s] | pIC50 [2] | pIC50 [3]
CCCCC1(C)CN(c2ccccc2)c2cc(SC)c(OCCC(=O)O)cc2S(=O)(=O)C1 (single isomer, unassigned) [Example 23, 3-((3-butyl-3-methyl-7-(methylthio)-1,1-dioxido-5-phenyl-2,3,4,5-tetrahydro-1,5-benzothiazepin-8-yl)oxy)propanoic acid] |  | 6.48 | 6.74
CCCCC1(C)CN(c2ccccc2)c2cc(SC)c(OCC(C)(O)C(=O)O)cc2S(=O)(=O)C1 (single isomer, unassigned) [33, diastereomer 1] |  | 6.91 | 5.23
CCCCC1(CC)CN(c2ccccc2)c2cc(Cl)c(OC(C)CC(=O)O)cc2S(=O)(=O)C1 (single isomer, unassigned) [30, diastereomers 3 and 4] |  | 6.58 | 6.09
CCCCC1(CC)CN(c2ccccc2)c2cc(SC)c(OCC(O)C(=O)O)cc2S(=O)(=O)C1 (stereo not drawn) [Example 39, 3-((3-butyl-3-ethyl-7-(methylthio)-1,1-dioxido-5-phenyl-2,3,4,5-tetrahydro-1,5-benzothiazepin-8-yl)oxy)-2-hydroxypropanoic acid] |  | 8.40 | 6.21
CCCCC1(CC)CN(c2ccccc2)c2cc(Cl)c(OCCC(=O)O)cc2S(=O)(=O)C1 (racemic) [Example 5, 3-((3-Butyl-7-chloro-3-ethyl-1,1-dioxido-5-phenyl-2,3,4,5-tetrahydro-1,5-benzothiazepin-8-yl)oxy)propanoic acid] |  | 7.46 | 6.10

Further compounds by rising pIC50 [2], results first:

Papp A→B at 120 min, 10 μM [1] [×10⁻⁶ cm/s] | pIC50 [2] | pIC50 [3] | Compound
 | 8.40 | 6.17 | CCCCC1(CC)CN(c2ccccc2)c2cc(SC)c(OCCC(=O)O)cc2S(=O)(=O)C1 (racemic) [Example 12, 3-((3-Butyl-3-ethyl-7-(methylthio)-1,1-dioxido-5-phenyl-2,3,4,5-tetrahydro-1,5-benzothiazepin-8-yl)oxy)propanoic acid]
17.6 | 8.52 |  | CCCCC1(CC)CN(c2ccccc2)c2cc(N(C)C)c(OCCC(=O)O)cc2S(=O)(=O)C1 (racemic) [Example 16, 3-((3-Butyl-7-(dimethylamino)-3-ethyl-1,1-dioxido-5-phenyl-2,3,4,5-tetrahydro-1,5-benzothiazepin-8-yl)oxy)propanoic acid]
16.5 | 8.70 |  | CCCCC1(CC)CN(c2ccccc2)c2cc(N(C)C)c(OCCC(=O)O)cc2S(=O)(=O)C1 (single isomer, unassigned) [Example 17, 3-((3-butyl-7-(dimethylamino)-3-ethyl-1,1-dioxido-5-phenyl-2,3,4,5-tetrahydro-1,5-benzothiazepin-8-yl)oxy)propanoic acid]
 | 8.70 | 6.18 | CCCCC1(CC)CN(c2ccccc2)c2cc(SC)c(OCC(O)C(=O)O)cc2S(=O)(=O)C1 (single isomer, unassigned) [40, diastereomer 3]
